{
  "source": "paper PMC11784013",
  "about": "“Potassium molybdate blocks APN-dependent coronavirus entry by degrading receptor via PIK3C3-mediated autophagy” (Journal of Virology, 2024)",
  "key": {"TGEV": {"tested_on": "TGEV", "experiment": "Time-of-drug-addition assay with TGEV in ST cells (inactivation, adsorption, penetration, replication, release)", "type": "cell-based, transmissible gastroenteritis virus", "procedure": "Fig 4 PM dampens TGEV infection by mainly blocking viral entry. (A) Inactivated assay. TGEV (0.1 MOI, red bar) and PM (10 mΜ) or H2O (blue bar) were mixed and incubated at 37°C for 3 and 5 h, respectively, and then the mixtures were added into ST cells. After incubation at 37°C for another 1 h, culture supernatants were replaced with fresh culture medium for 17 h at 37°C. After washing with PBS, the mRNA levels and viral load of TGEV N protein were measured by RT-qPCR. (B) Adsorption assay. ST cells were pretreated with PM (10 mΜ) or H2O (blue bar) for 1 h at 37°C, and then the media were replaced by a mixture of PM (10 mΜ) or H2O and TGEV (5 MOI, red bar) for 0.5 or 1 h at 4°C. After washing with PBS, the genomic RNA levels and viral load of TGEV N protein were measured by RT-qPCR. (C and D) Penetration assay. ST cells were infected with 5 MOI TGEV (red bar) for 1 h at 4°C and were then treated with PM (10 mΜ) or H2O (blue bar) for 1 or 2 h at 37°C after washing with PBS. The cell samples were washed using sodium citrate buffer and tested through RT-qPCR (C) and IFA (D), scale bar: 50 µm/5 µm. (E) Replication assay. ST cells infected with 5 MOI TGEV (red bar) were incubated at 37°C for 3 h and washed with sodium citrate buffer. Then, cells were treated with PM (10 mΜ) or H2O (blue bar) for 5 or 13 h. The cells were harvested and examined by RT-qPCR. (F) Release assay. ST cells were infected with 5 MOI TGEV (red bar) for 16 h and then PM (10 mΜ) or H2O (blue bar) was added to the cells for 1 or 2 h. qRT-PCR was used to test the mRNA levels and viral load of the virus in the supernatant. Results are presented as mean ± SD of data from three independent experiments. ***, P ≤ 0.001; ns, no significance. […]\nred bar) and PM (10 mΜ) or H2O (blue bar) were mixed and incubated at 37 °C for 3 h and 5 h respectively and then the mixtures were added into ST cells. After incubation at 37°C for another 1 h, culture supernatants were replaced with fresh culture medium for 17 h at 37°C. Viral titers were detected by TCID50. (B) Release assay. ST cells were infected with 0.1 MOI TGEV (red bar) for 16 h and then PM (10 mΜ) or H2O (blue bar) was added to the cells for 1 h or 2 h. TCID50 was used to test the viral titers in supernatant. Results are presented as mean ± SD of data from three independent experiments ns, no significant.\n(also on this page, place not known: 3h 5h 0 2 4 6 8 H2O PM log10 TCID50/ml ns ns 0 2 4 6 8 H2O PM log10 TCID50/ml ns ns -3h-5h 17h 18h CollectedPM/H2O) […]"}, "TGEV Miller": {"tested_on": "TGEV Miller", "experiment": "TGEV infection of ST cells (RT-qPCR, TCID50, western blot, IFA)", "type": "cell-based, transmissible gastroenteritis virus", "conditions": "TGEV Miller 0.1 MOI, PM 1 h pretreatment and 17 h after infection, TCID50, western blot, IFA", "procedure": "Fig 1 PM inhibits TGEV and PRCV infection in ST cells. (A) A cytotoxicity assay of PM in ST cells. ST cells cultured in a 96-well plate were incubated with different concentrations of PM for 24 h, which was tested by Cell Counting Kit 8. (B) Time course for PM inhibiting TGEV or PRCV or PEDV infection assay. (C–F) The ST cells, pretreated with PM at the indicated concentrations for 1 h were infected with TGEV Miller (0.1 MOI) or PRCV (0.1 MOI) for 1 h and were again treated with PM at 37°C for 17 h. The cell samples were collected and examined by real-time quantitative PCR (RT-qPCR), TCID50, western blot (C and D), and immunofluorescence assay (IFA) (E and F), scale bar: 50 µm. (G) Vero-E6 cells were treated with indicated PM and infected with PEDV LJX 01/2014 according to the time course of Fig. 1B, which was detected by TCID50 and western blot. Results are presented as mean ± SD of data from three independent experiments. ns, no significant; **, P ≤ 0.01; ***, P ≤ 0.001.\nFig 3 PM inhibits TGEV and PRCV infection by potassium ion and molybdate synergy. […] The cell samples were measured by RT-qPCR. (C and D) ST cells were treated with PM (K2MoO4, 10 mM), KCl (20 mM), Na2MoO4 (10 mM), sodium chloride (NaCl, 10 mM), K2MoO4 (10 mM), and NaCl (20 mM) as well as Na2MoO4 (10 mM) and KCl (20 mM) for 1 h and then infected with TGEV Miller (0.1 MOI) or PRCV (0.1 MOI) for 17 h, which was determined by RT-qPCR and TCID50. […]\nTotal RNA was extracted using RNAiso reagent (TaKaRa, Japan, 9109) and reverse transcribed into cDNA using HiScript Q RT SuperMix for qPCR (Vazyme, China, R223-01), both of which followed the manufacturer’s recommendations. The TGEV and PRCV virus copy numbers were detected by the TaqMan probe-based RT-qPCR method developed previously in our laboratory ([59]). Relative qPCR was also performed using ChamQ SYBR qPCR master mix (Vazyme, China, Q311-02), and the results were calculated via the 2^-ΔΔCT method."}},
  "note": "“Also recorded” adds a separate entry of the source.",
  "data": [
    {"smiles": "[K+].[K+].[O]=[Mo](=[O])([O-])[O-]", "note": "[PM, potassium molybdate]", "values": [
      {"measurement": "direct inactivation of TGEV (inactivated assay)", "setting": "TGEV; PM 10 mM mixed with TGEV 0.1 MOI at 37°C for 3 and 5 h, RT-qPCR, TCID50", "result": "cannot inactivate TGEV and affect viral release"},
      {"measurement": "TGEV release", "setting": "TGEV; ST cells, PM 10 mM added 16 h after infection for 1 or 2 h, RT-qPCR, TCID50 of supernatant", "result": "cannot inactivate TGEV and affect viral release; also recorded: uninfluential in virus adsorption and release"},
      {"measurement": "TGEV adsorption", "setting": "TGEV; ST cells, PM 10 mM, TGEV 5 MOI, 0.5 or 1 h at 4°C, RT-qPCR", "result": "uninfluential in virus adsorption and release"},
      {"measurement": "TGEV entry (penetration assay)", "setting": "TGEV; ST cells, PM 10 mM, TGEV 5 MOI, 1 or 2 h at 37°C, RT-qPCR and IFA", "result": "significantly inhibited TGEV entry"},
      {"measurement": "TGEV replication", "setting": "TGEV; ST cells, PM 10 mM, TGEV 5 MOI, PM for 5 or 13 h from 3 h after infection, RT-qPCR", "result": "moderately restricted viral replication"},
      {"measurement": "TGEV infection", "setting": "TGEV Miller", "result": "effectively restricted"}
    ]}
  ]
}
